Source: the supplement of paper PMC8617591

Experiments:
[1] = tested on: Mycobacterium tuberculosis Erdman (autoluminescent); assay: FIC90 (Loewe) at 90% inhibition (log2); higher = more antagonistic
Description: (§1)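 DiaMOND equipotent two-drug combination dose responses against autoluminescent M. tuberculosis Erdman in 8 in vitro models. Read-out is OD600, or luminescence for the intracellular and dormancy models, normalised to untreated wells. Hill-fit Einf, AUC25 and GRinf are potency metrics; FIC50 and FIC90 are Loewe-additivity fractional inhibitory concentrations, given as log2 (negative = synergy). Replicates are averaged.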

[2] = tested on: Mycobacterium tuberculosis Erdman (autoluminescent); assay: AUC25, normalised area under dose response up to IC25 (fraction (0-1)); higher = more potent at low dose
Description: as §1

[3] = tested on: Mycobacterium tuberculosis Erdman (autoluminescent); assay: FIC50 (Loewe) at 50% inhibition (log2); higher = more antagonistic
Description: as §1

[4] = tested on: Mycobacterium tuberculosis Erdman (autoluminescent); assay: GRinf, maximum normalised growth rate inhibition (unitless (-1 to 1)); higher = less effect (negative = killing)
Description: as §1

[5] = tested on: Mycobacterium tuberculosis Erdman (autoluminescent); assay: Einf, fitted maximum growth inhibition of combination (fraction); higher = stronger maximal inhibition
Description: as §1

CC(C)/N=c1\cc2n(-c3ccc(Cl)cc3)c3ccccc3nc-2cc1Nc1ccc(Cl)cc1 [clofazimine] + CC[C@@H](CO)NCCN[C@@H](CC)CO [ethambutol]
Conditions	AUC25, [2]	Einf, [5]	FIC50, [3]	FIC90, [1]	GRinf, [4]
in vitro model: acidic pH 5.7, time point: constant (~7 days, model-specific)	0.101	0.702	0.298	–	0.0851
in vitro model: acidic pH 5.7, time point: terminal (~4-5 doublings, model-specific)	0.0812	0.937	0.474	0.294	-0.228
in vitro model: intracellular J774, time point: constant = terminal	–	1	–	-0.448	-0.789

Conditions	AUC25, [2]	Einf, [5]	FIC50, [3]	FIC90, [1]	GRinf, [4]
in vitro model: butyrate, time point: constant (~7 days, model-specific)	0.0939	0.947	0.311	–	-0.0791
in vitro model: butyrate, time point: terminal (~4-5 doublings, model-specific)	0.0809	0.975	0.299	0.104	-0.0975
in vitro model: cholesterol 0.05 mM, time point: constant (~7 days, model-specific)	0.13	0.635	0.526	–	-0.0623
in vitro model: cholesterol 0.05 mM, time point: terminal (~4-5 doublings, model-specific)	0.137	0.854	0.199	–	-0.424
in vitro model: cholesterol-high 0.2 mM, time point: constant (~7 days, model-specific)	0.089	0.983	0.491	–	-0.666
in vitro model: cholesterol-high 0.2 mM, time point: terminal (~4-5 doublings, model-specific)	0.0861	0.999	0.255	0.466	-0.935
in vitro model: dormancy (butyrate + nitrate, low O2), time point: constant (~7 days, model-specific)	0.0731	0.788	-0.136	–	0.516
in vitro model: dormancy (butyrate + nitrate, low O2), time point: terminal (~4-5 doublings, model-specific)	0.114	0.967	0.277	0.818	-0.0829
in vitro model: standard 7H9 glycerol, time point: constant = terminal	0.111	0.963	-0.113	0.12	-0.234
in vitro model: valerate, time point: constant (~7 days, model-specific)	0.144	0.899	0.000309	–	-0.321
in vitro model: valerate, time point: terminal (~4-5 doublings, model-specific)	0.0819	0.913	0.0811	-0.728	-2.83e-05

CC(C)/N=c1\cc2n(-c3ccc(Cl)cc3)c3ccccc3nc-2cc1Nc1ccc(Cl)cc1 [clofazimine] + CO[C@H]1/C=C/O[C@@]2(C)Oc3c(C)c(O)c4c(O)c(c(/C=N/N5CCN(C6CCCC6)CC5)c(O)c4c3C2=O)NC(=O)/C(C)=C\C=C\[C@H](C)[C@H](O)[C@@H](C)[C@@H](O)[C@@H](C)[C@H](OC(C)=O)[C@@H]1C [rifapentine]
Conditions	AUC25, [2]	Einf, [5]	FIC50, [3]	FIC90, [1]	GRinf, [4]
in vitro model: acidic pH 5.7, time point: constant (~7 days, model-specific)	0.0913	0.879	0.0615	0.794	-0.198
in vitro model: acidic pH 5.7, time point: terminal (~4-5 doublings, model-specific)	0.0911	0.986	-0.0081	0.123	-0.304
in vitro model: intracellular J774, time point: constant = terminal	–	0.988	–	0.278	-0.308

Conditions	AUC25, [2]	Einf, [5]	FIC50, [3]	FIC90, [1]	GRinf, [4]
in vitro model: butyrate, time point: constant (~7 days, model-specific)	0.112	0.95	0.36	0.54	-0.0864
in vitro model: butyrate, time point: terminal (~4-5 doublings, model-specific)	0.0945	0.986	0.279	0.504	-0.0855
in vitro model: cholesterol 0.05 mM, time point: constant (~7 days, model-specific)	0.137	0.651	1.24	–	-0.17
in vitro model: cholesterol 0.05 mM, time point: terminal (~4-5 doublings, model-specific)	0.111	0.887	1.3	1.44	-0.127
in vitro model: cholesterol-high 0.2 mM, time point: constant (~7 days, model-specific)	0.102	0.924	0.657	1.06	-0.717
in vitro model: cholesterol-high 0.2 mM, time point: terminal (~4-5 doublings, model-specific)	0.0885	0.996	0.714	0.543	-0.813
in vitro model: dormancy (butyrate + nitrate, low O2), time point: constant (~7 days, model-specific)	0.0864	0.932	0.121	0.16	0.0493
in vitro model: dormancy (butyrate + nitrate, low O2), time point: terminal (~4-5 doublings, model-specific)	0.057	0.984	0.512	0.536	-0.373
in vitro model: standard 7H9 glycerol, time point: constant = terminal	0.1	0.967	0.18	0.35	-0.11
in vitro model: valerate, time point: constant (~7 days, model-specific)	0.136	0.885	0.297	–	-0.112
in vitro model: valerate, time point: terminal (~4-5 doublings, model-specific)	0.0746	0.918	0.0341	0.667	0.116

CC(C)/N=c1\cc2n(-c3ccc(Cl)cc3)c3ccccc3nc-2cc1Nc1ccc(Cl)cc1 [clofazimine] + CO[C@H]1/C=C/O[C@@]2(C)Oc3c(C)c(O)c4c(O)c(c(/C=N/N5CCN(C)CC5)c(O)c4c3C2=O)NC(=O)/C(C)=C\C=C\[C@H](C)[C@H](O)[C@@H](C)[C@@H](O)[C@@H](C)[C@H](OC(C)=O)[C@@H]1C [rifampicin]
Conditions	AUC25, [2]	Einf, [5]	FIC50, [3]	FIC90, [1]	GRinf, [4]
in vitro model: acidic pH 5.7, time point: constant (~7 days, model-specific)	0.0889	0.874	-0.0436	-1.95	-0.208
in vitro model: acidic pH 5.7, time point: terminal (~4-5 doublings, model-specific)	0.0797	0.986	0.0811	-0.172	-0.273
in vitro model: intracellular J774, time point: constant = terminal	–	0.967	–	0.0974	-0.265

Conditions	AUC25, [2]	Einf, [5]	FIC50, [3]	FIC90, [1]	GRinf, [4]
in vitro model: butyrate, time point: constant (~7 days, model-specific)	0.117	0.936	0.216	0.25	-0.0602
in vitro model: butyrate, time point: terminal (~4-5 doublings, model-specific)	0.104	0.979	0.0822	0.348	-0.0537
in vitro model: cholesterol 0.05 mM, time point: constant (~7 days, model-specific)	0.113	0.573	0.4	–	0.303
in vitro model: cholesterol 0.05 mM, time point: terminal (~4-5 doublings, model-specific)	0.0926	0.867	1.24	2.57	0.0118
in vitro model: cholesterol-high 0.2 mM, time point: constant (~7 days, model-specific)	0.0989	0.907	0.773	2.49	-0.497
in vitro model: cholesterol-high 0.2 mM, time point: terminal (~4-5 doublings, model-specific)	0.0908	1	1.01	0.724	-0.955
in vitro model: dormancy (butyrate + nitrate, low O2), time point: constant (~7 days, model-specific)	0.0883	0.893	0.2	-0.494	0.194
in vitro model: dormancy (butyrate + nitrate, low O2), time point: terminal (~4-5 doublings, model-specific)	0.062	0.97	0.0425	0.45	-0.059
in vitro model: standard 7H9 glycerol, time point: constant = terminal	0.103	0.935	-0.376	-0.394	0.00747
in vitro model: valerate, time point: constant (~7 days, model-specific)	0.119	0.907	0.421	–	-0.0677
in vitro model: valerate, time point: terminal (~4-5 doublings, model-specific)	0.0808	0.955	0.569	1.43	0.00769

CC(C)/N=c1\cc2n(-c3ccc(Cl)cc3)c3ccccc3nc-2cc1Nc1ccc(Cl)cc1 [clofazimine] + COc1c(N2C[C@@H]3CCCN[C@@H]3C2)c(F)cc2c(=O)c(C(=O)O)cn(C3CC3)c12 [moxifloxacin]
Conditions	AUC25, [2]	Einf, [5]	FIC50, [3]	FIC90, [1]	GRinf, [4]
in vitro model: acidic pH 5.7, time point: constant (~7 days, model-specific)	0.151	0.605	0.466	–	-0.0307
in vitro model: acidic pH 5.7, time point: terminal (~4-5 doublings, model-specific)	0.0976	0.937	0.107	0.181	-0.212
in vitro model: intracellular J774, time point: constant = terminal	–	0.953	–	0.341	-0.283

Conditions	AUC25, [2]	Einf, [5]	FIC50, [3]	FIC90, [1]	GRinf, [4]
in vitro model: butyrate, time point: constant (~7 days, model-specific)	0.109	0.955	0.486	1	-0.131
in vitro model: butyrate, time point: terminal (~4-5 doublings, model-specific)	0.0987	0.991	0.404	0.955	-0.125
in vitro model: cholesterol 0.05 mM, time point: constant (~7 days, model-specific)	0.153	0.711	0.262	–	-0.0492
in vitro model: cholesterol 0.05 mM, time point: terminal (~4-5 doublings, model-specific)	0.119	0.905	0.647	-0.276	-0.105
in vitro model: cholesterol-high 0.2 mM, time point: constant (~7 days, model-specific)	0.131	0.944	0.132	1.06	-0.922
in vitro model: cholesterol-high 0.2 mM, time point: terminal (~4-5 doublings, model-specific)	0.113	1	0.0758	0.41	-0.95
in vitro model: dormancy (butyrate + nitrate, low O2), time point: constant (~7 days, model-specific)	0.109	0.931	0.299	0.00346	-0.049
in vitro model: dormancy (butyrate + nitrate, low O2), time point: terminal (~4-5 doublings, model-specific)	0.0647	0.98	0.666	0.72	-0.241
in vitro model: standard 7H9 glycerol, time point: constant = terminal	0.109	0.971	0.11	0.558	-0.193
in vitro model: valerate, time point: constant (~7 days, model-specific)	0.139	0.895	-0.0703	–	-0.179
in vitro model: valerate, time point: terminal (~4-5 doublings, model-specific)	0.0871	0.941	0.137	0.7	-0.0272
